Patent publication US8334316B2, “Substituted organosulfur compounds and methods of using thereof” (ACEA Biosciences, Inc., priority 2004, dated 2012)
Like-named read-outs stand apart in the source and are kept apart here.

Assay: Acute toxicity, single intravenous injection, LD50 (Bliss method) in Kunming mice
Assay type: in vivo
Settings: for Dead animals on day 8 after the single intravenous injection / Dead animals on day 9 after the single intravenous injection / Dead animals on days 10-14 after the single intravenous injection / Percentage of dead animals / Dead animals on day 1 after the single intravenous injection / Dead animals on day 2 after the single intravenous injection / Dead animals on day 3 after the single intravenous injection / Dead animals on day 4 after the single intravenous injection / Dead animals on day 5 after the single intravenous injection / Dead animals on day 6 after the single intravenous injection / Dead animals on day 7 after the single intravenous injection: 10 animals; for LD50 at 2 weeks: Kunming, mouse, in vivo, iv
Procedure: To evaluate the in vivo acute, intravenous toxicity of DBTS and ACEA100108 (a derivative of DBTS, see Table 33), the experiments were performed in non-tumor bearing, normal Kunming mice by monitoring the acute response of mice to a single dose of DBTS or ACEA100108 via intravenous injection (i.v.). The number of death for the treated mice was monitored and recorded. LD50 values for these compounds were calculated. Details of the study are provided below.
The experiments to test DBTS and ACEA100108 acute toxicity were performed in mice. The test mice were randomly divided into six groups (five dosing groups and one control group). Each group contained 20 Kunming strain mice, and among them, 50% were male and 50% were female. After administration of a single dose of DBTS or ACEA100108 via intravenous injection (i.v.), the acute response to DBTS or ACEA100108 compound, and the death of the treated mice during the first two weeks were monitored and recorded. The LD50 value was calculated using the Bliss method.
Materials and Method. The test chemical compound were DBTS and ACEA100108, which were dissolved into hydrogenated castor oil in the pre-warmed water bath and made as a 20 mg/ml solution. The solution was further diluted to desired experiment concentrations with the normal saline. The administration volume was 0.5 ml i.v. per mouse and the injection speed was 0.5 ml/0.5 min.
The experimental mice were Kunming strain, provided by the Experimental Animal Department, Shanghai Pharmaceutical Industry Institute. The certificate number of the facility was Animal Facility Certification Number 107. The average weight of the mice was 18-20 gram. Each test group contained 20 Kunming strain mice, and among them, 10 mice were male and 10 mice were female. […] The mice in the control group were only given the same volume of the solvent, which were diluted hydrogenated castor oil. All the testing mice were given a single intravenous injection of DBTS, ACEA100108, or the solvent that served as the control at the injection speed of 0.5 ml/0.5 min. The acute response to DBTS, ACEA100108 or the solvent immediately after the administration, as well as weight change, and the death within the first two weeks of the administration were monitored and recorded. The intravenous injection LD50 values in mice were calculated using the Bliss method.

## Fc1ccc(CSSSCc2ccc(F)cc2)cc1 [ACEA100108, Di(p-fluorobenzyl)trisulfide]
Female, 320 mg/kg
  Dead animals on day 8 after the single intravenous injection: 0
  Dead animals on day 9 after the single intravenous injection: 0
  Dead animals on days 10-14 after the single intravenous injection: 0 - - - 0
  Percentage of dead animals: 50%
Female, 320 mg/kg, Beginning 19.9
  Average animal weight, End: 24.6
Female, 400 mg/kg
  Dead animals on day 1 after the single intravenous injection: 5
  Dead animals on day 2 after the single intravenous injection: 2
  Dead animals on day 3 after the single intravenous injection: 0
  Dead animals on day 4 after the single intravenous injection: 1
  Dead animals on day 5 after the single intravenous injection: 0
  Dead animals on day 6 after the single intravenous injection: 0
  Dead animals on day 7 after the single intravenous injection: 0
  Dead animals on day 8 after the single intravenous injection: 0
  Dead animals on day 9 after the single intravenous injection: 0
  Dead animals on days 10-14 after the single intravenous injection: 0 - - - 0
  Percentage of dead animals: 80%
Female, 400 mg/kg, Beginning 19.9
  Average animal weight, End: 23.5
Female, 500 mg/kg
  Dead animals on day 1 after the single intravenous injection: 10
  Dead animals on day 2 after the single intravenous injection: 0
  Dead animals on day 3 after the single intravenous injection: 0
  Dead animals on day 4 after the single intravenous injection: 0
  Dead animals on day 5 after the single intravenous injection: 0
  Dead animals on day 6 after the single intravenous injection: 0
  Dead animals on day 7 after the single intravenous injection: 0
  Dead animals on day 8 after the single intravenous injection: 0
  Dead animals on day 9 after the single intravenous injection: 0
  Dead animals on days 10-14 after the single intravenous injection: 0 - - - 0
  Percentage of dead animals: 100%
Male, 163.8 mg/kg
  Dead animals on day 1 after the single intravenous injection: 0
  Dead animals on day 2 after the single intravenous injection: 0
  Dead animals on day 3 after the single intravenous injection: 0
  Dead animals on day 4 after the single intravenous injection: 0
  Dead animals on day 5 after the single intravenous injection: 0
  Dead animals on day 6 after the single intravenous injection: 0
  Dead animals on day 7 after the single intravenous injection: 0
  Dead animals on day 8 after the single intravenous injection: 0
  Dead animals on day 9 after the single intravenous injection: 0
  Dead animals on days 10-14 after the single intravenous injection: 0 - - - 0
  Percentage of dead animals: 0%
Male, 163.8 mg/kg, Beginning 20.4
  Average animal weight, End: 27.0
Male, 204.8 mg/kg
  Dead animals on day 1 after the single intravenous injection: 0
  Dead animals on day 2 after the single intravenous injection: 0
  Dead animals on day 3 after the single intravenous injection: 1
  Dead animals on day 4 after the single intravenous injection: 0
  Dead animals on day 5 after the single intravenous injection: 0
  Dead animals on day 6 after the single intravenous injection: 0
  Dead animals on day 7 after the single intravenous injection: 0
  Dead animals on day 8 after the single intravenous injection: 0
  Dead animals on day 9 after the single intravenous injection: 0
  Dead animals on days 10-14 after the single intravenous injection: 0 - - - 0
  Percentage of dead animals: 10%
Male, 204.8 mg/kg, Beginning 20.3
  Average animal weight, End: 26.3
Male, 256 mg/kg
  Dead animals on day 1 after the single intravenous injection: 0
  Dead animals on day 2 after the single intravenous injection: 2
  Dead animals on day 3 after the single intravenous injection: 0
  Dead animals on day 4 after the single intravenous injection: 1
  Dead animals on day 5 after the single intravenous injection: 0
  Dead animals on day 6 after the single intravenous injection: 0
  Dead animals on day 7 after the single intravenous injection: 0
  Dead animals on day 8 after the single intravenous injection: 0
  Dead animals on day 9 after the single intravenous injection: 0
  Dead animals on days 10-14 after the single intravenous injection: 0 - - - 0
  Percentage of dead animals: 30%
Male, 256 mg/kg, Beginning 20.2
  Average animal weight, End: 26.3
Male, 320 mg/kg
  Dead animals on day 1 after the single intravenous injection: 0
  Dead animals on day 2 after the single intravenous injection: 3
  Dead animals on day 3 after the single intravenous injection: 1
  Dead animals on day 4 after the single intravenous injection: 0
  Dead animals on day 5 after the single intravenous injection: 0
  Dead animals on day 6 after the single intravenous injection: 0
  Dead animals on day 7 after the single intravenous injection: 0
  Dead animals on day 8 after the single intravenous injection: 0
  Dead animals on day 9 after the single intravenous injection: 0
  Dead animals on days 10-14 after the single intravenous injection: 0 - - - 0
  Percentage of dead animals: 40%
Male, 320 mg/kg, Beginning 20.0
  Average animal weight, End: 26.7
Male, 400 mg/kg
  Dead animals on day 1 after the single intravenous injection: 3
  Dead animals on day 2 after the single intravenous injection: 3
  Dead animals on day 3 after the single intravenous injection: 0
  Dead animals on day 4 after the single intravenous injection: 1
  Dead animals on day 5 after the single intravenous injection: 0
  Dead animals on day 6 after the single intravenous injection: 0
  Dead animals on day 7 after the single intravenous injection: 0
  Dead animals on day 8 after the single intravenous injection: 0
  Dead animals on day 9 after the single intravenous injection: 0
  Dead animals on days 10-14 after the single intravenous injection: 0 - - - 0
  Percentage of dead animals: 70%
Male, 400 mg/kg, Beginning 19.9
  Average animal weight, End: 26.0
Male, 500 mg/kg
  Dead animals on day 1 after the single intravenous injection: 10
  Dead animals on day 2 after the single intravenous injection: 0
  Dead animals on day 3 after the single intravenous injection: 0
  Dead animals on day 4 after the single intravenous injection: 0
  Dead animals on day 5 after the single intravenous injection: 0
  Dead animals on day 6 after the single intravenous injection: 0
  Dead animals on day 7 after the single intravenous injection: 0
  Dead animals on day 8 after the single intravenous injection: 0
  Dead animals on day 9 after the single intravenous injection: 0
  Dead animals on days 10-14 after the single intravenous injection: 0 - - - 0
  Percentage of dead animals: 100%
Both sexes, 50% male, 50% female Kunming mice, single intravenous injection, confidence limits, read-out: LD50 (95% CL)
  LD50 at 2 weeks: 284 to 351 mg/kg
Both sexes, 50% male, 50% female Kunming mice, single intravenous injection, read-out: LD50
  LD50 at 2 weeks: 316 mg/kg
Both sexes, Kunming mice, 50% male 50% female, Bliss method, read-out: mouse single i.v. dose LD50, interval in parentheses
  LD50 at 2 weeks: 284 to 351 mg/kg
Both sexes, Kunming mice, 50% male 50% female, Bliss method, read-out: mouse single i.v. dose LD50 value
  LD50 at 2 weeks: 316 mg/kg
female, Female Kunming mice, single intravenous injection, confidence limits, read-out: LD50 (95% CL)
  LD50 at 2 weeks: 273 to 360 mg/kg
female, Female Kunming mice, single intravenous injection, read-out: LD50
  LD50 at 2 weeks: 313 mg/kg
male, Male Kunming mice, single intravenous injection, confidence limits, read-out: LD50 (95% CL)
  LD50 at 2 weeks: 272 to 375 mg/kg
male, Male Kunming mice, single intravenous injection, read-out: LD50
  LD50 at 2 weeks: 319 mg/kg
